Test results as given in patent publication US10743540B2, “3-amino-1,2,4-triazine derivatives and their use for controlling undesired plant growth” (BAYER CROPSCIENCE AKTIENGESELLSCHAFT, priority 2016, dated 2020).

What was measured:
Format in all cases: in vivo
[1] = test system: ALOMY: Alopecurus myosuroides; experiment: Pre-emergence herbicidal effect; settings: application rate 320 g/ha, scored visually after 3 weeks, 100% = plants have died, 0% = like control plants
Excerpt: (§1) 1. Pre-Emergence Herbicidal Effect and Crop Plant Compatibility Seeds of monocotyledonous and dicotyledonous weed plants and crop plants are laid out in sandy loam soil in wood-fiber pots and covered with soil. The compounds of the invention, formulated in the form of wettable powders (WP) or as emulsion concentrates (EC), are then applied to the surface of the covering soil as aqueous suspension or emulsion at a water application rate equating to 600 to 800 L/ha with addition of 0.2% wetting agent. After the treatment, the pots are placed in a greenhouse and kept under good growth conditions for the trial plants. The damage to the test plants is scored visually after a test period of 3 weeks by comparison with untreated controls (herbicidal activity in percent (%): 100% activity=the plants have died, 0% activity=like control plants). [table]

[2] = test system: ECHCG: Echinochloa crus-galli; experiment: Pre-emergence herbicidal effect; settings: application rate 320 g/ha, scored visually after 3 weeks, 100% = plants have died, 0% = like control plants
Excerpt: as §1

[3] = test system: LOLMU: Lolium multiflorum; experiment: Pre-emergence herbicidal effect; settings: application rate 320 g/ha, scored visually after 3 weeks, 100% = plants have died, 0% = like control plants
Excerpt: as §1

[4] = test system: MATIN: Matricaria inodora; experiment: Pre-emergence herbicidal effect; settings: application rate 320 g/ha, scored visually after 3 weeks, 100% = plants have died, 0% = like control plants
Excerpt: as §1

[5] = test system: POLCO: Polygonum convolvulus; experiment: Pre-emergence herbicidal effect; settings: application rate 320 g/ha, scored visually after 3 weeks, 100% = plants have died, 0% = like control plants
Excerpt: as §1

SETVI: Setaria viridis = experiment: Pre-emergence herbicidal effect; settings: application rate 320 g/ha, scored visually after 3 weeks, 100% = plants have died, 0% = like control plants
Excerpt: as §1

STEME: Stellaria media [6] = experiment: Pre-emergence herbicidal effect; settings: application rate 320 g/ha, scored visually after 3 weeks, 100% = plants have died, 0% = like control plants
Excerpt: as §1

VERPE: Veronica persica [7] = experiment: Pre-emergence herbicidal effect; settings: application rate 320 g/ha, scored visually after 3 weeks, 100% = plants have died, 0% = like control plants
Excerpt: as §1

STEME: Stellaria media [8] = experiment: Post-emergence herbicidal effect; settings: application rate 320 g/ha, treated at one-leaf stage, assessed visually after about 3 weeks, 100% = plants have died
Protocol: (§2) [table] 2. Post-Emergence Herbicidal Effect and Crop Plant Compatibility Seeds of monocotyledonous and dicotyledonous weed and crop plants are laid out in sandy loam soil in wood-fiber pots, covered with soil and cultivated in a greenhouse under good growth conditions. 2 to 3 weeks after sowing, the test plants are treated at the one-leaf stage. The compounds of the invention, formulated in the form of wettable powders (WP) or as emulsion concentrates (EC), are then sprayed onto the green parts of the plants as aqueous suspension or emulsion at a water application rate equating to 600 to 800 L/ha with addition of 0.2% wetting agent. After the test plants have been left to stand in the greenhouse under optimal growth conditions for about 3 weeks, the action of the preparations is assessed visually in comparison to untreated controls (herbicidal action in percent (%): 100% activity=the plants have died, 0% activity=like control plants).

VERPE: Veronica persica [9] = experiment: Post-emergence herbicidal effect; settings: application rate 320 g/ha, treated at one-leaf stage, assessed visually after about 3 weeks, 100% = plants have died
Protocol: as §2

[10] = test system: AMARE: Amaranthus retroflexus; experiment: Post-emergence herbicidal effect; settings: application rate 320 g/ha, treated at one-leaf stage, assessed visually after about 3 weeks, 100% = plants have died
Protocol: as §2

VIOTR: Viola tricolor = experiment: Post-emergence herbicidal effect; settings: application rate 320 g/ha, treated at one-leaf stage, assessed visually after about 3 weeks, 100% = plants have died
Protocol: as §2

SMILES | Herbicidal activity with respect to [%] ALOMY [1] [%] | Herbicidal activity with respect to [%] ECHCG [2] [%] | Herbicidal activity with respect to [%] LOLMU [3] [%] | Herbicidal activity with respect to [%] MATIN [4] [%] | Herbicidal activity with respect to [%] POLCO [5] [%] | Herbicidal activity with respect to [%] SETVI (SETVI: Setaria viridis) [%] | Herbicidal activity with respect to [%] STEME (STEME: Stellaria media [6]) [%] | Herbicidal activity with respect to [%] VERPE (VERPE: Veronica persica [7]) [%] | Herbicidal activity with respect to [%] STEME (STEME: Stellaria media [8]) [%] | Herbicidal activity with respect to [%] VERPE (VERPE: Veronica persica [9]) [%] | Herbicidal activity with respect to [%] AMARE [10] [%] | Herbicidal activity with respect to [%] VIOTR (VIOTR: Viola tricolor) [%]
Nc1nc(NC2CCCc3cc(F)ccc32)nnc1C(F)(F)F (racemic) [Example 1.46] | 90 | 100 | 90 | 100 | 100 | 100 | 100 | 100 | 100 | 80 |  | 
N#Cc1nnc(NC2CCOc3ccccc32)nc1N (racemic) [Example 1.60] |  |  |  |  |  |  | 100 | 100 | 90 | 100 | 80 | 
N#Cc1nnc(NC2CCOc3ccc(F)cc32)nc1N (racemic) [Example 1.64] |  | 100 |  | 90 | 100 | 100 | 100 | 100 | 90 | 100 | 100 | 80
CC(=O)c1nnc(N[C@@H]2CCc3ccccc32)nc1N [Example 1.29, 1-[5-Amino-3-[(1R)-2,3-dihydro-1H-inden-1-ylamino]-1,2,4-triazin-6-yl]ethanone] |  |  |  | 100 | 80 |  | 90 | 90 | 90 |  |  | 80
Cc1ccc2c(c1)[C@H](Nc1nnc(C(F)(F)F)c(N)n1)CC2 [Example 1.31] | 100 | 100 | 100 | 100 | 100 | 100 | 100 | 100 | 90 |  |  | 
CCOC(=O)c1nnc(N[C@@H]2CCCc3ccccc32)nc1N [Example 1.32, Ethyl 5-amino-3-[(1R)-1,2,3,4-tetrahydronaphthalen-1-ylamino]-1,2,4-triazine-6-carboxylate] |  | 100 |  | 100 |  | 90 | 100 | 100 | 80 | 80 | 80 | 
Cc1ccc2c(c1)[C@H](Nc1nnc(C(=O)NC(C)C)c(N)n1)[C@@H](C)C2 [Example 1.39] | 80 | 90 |  | 100 | 80 | 100 | 100 | 100 | 80 | 100 |  | 90
Nc1nc(N[C@@H]2CCc3ccccc32)nnc1Cl [Example 1.59] |  | 80 | 90 |  | 80 | 80 | 100 | 100 | 100 | 80 |  | 
CCOC(=O)c1nnc(N[C@@H]2CCc3ccc(C)cc32)nc1N [Example 1.74] | 80 | 100 |  | 100 | 100 | 100 |  |  | 100 |  |  | 
C=C(c1nnc(N[C@H]2c3cc(C)ccc3C[C@@H]2C)nc1N)C(F)(F)F [Example 1.81] |  | 100 |  | 100 | 100 |  | 100 | 100 |  |  |  | 80
Nc1nc(NC2c3ccccc3CC2O)nnc1C(F)(F)F (stereo not drawn) [Example 1.82] |  |  |  | 100 | 100 | 100 |  |  |  |  |  | 
Cc1ccc2c(c1)[C@H](Nc1nnc(C(C)O)c(N)n1)[C@@H](C)C2 (stereo partly drawn) [Example 1.103] |  | 100 |  | 100 | 100 |  | 100 | 100 | 80 | 90 |  | 90
Cc1ccc2c(c1)[C@H](Nc1nnc(C(C)(C)O)c(N)n1)[C@@H](C)C2 [Example 1.105] |  | 100 |  | 100 | 100 |  | 100 | 100 |  | 80 |  | 90
